Assay results reported in patent US5434182A (priority 1993, dated 1995).
Values joined by “and” are separate entries in the source; they are usually repeats but may differ in a detail not shown here. Equal values may be shown once. “Also recorded” adds a separate entry of the source. Where a name gives a salt, the structure may show the parent alone. Read-outs that look alike come from different tables or passages of the source.

Columns and labels:
VSV [1] = test: microbe, parasite or virus in culture; format: cell-based, vesicular stomatitis virus
Total White Blood Cells = test: Stability of white blood cells in whole human blood to added lipid; format: cell-based; parameters: unit not given here; settings: 15 mM, control 6.4
Text: Further testing has shown the effect of monoglyceride esters and ether on the total white blood cell concentration in whole human blood.

VSV [2] = test: microbe, parasite or virus in culture; format: cell-based, vesicular stomatitis virus strain Indiana; settings: for minimal effective concentration: read-out: lowest concentration which reduced the VSV titer by ≥4.0 log10 units; for antiviral effect in words: fatty acids of Table 2
poliovirus = format: cell-based, Poliovirus type 1 strain Chat; settings: 8 mg/ml, 37° C., 30 min; control 10^4.7 TCID50
HSV-1 = test: microbe, parasite or virus in culture; format: cell-based, herpes simplex virus type 1 strain MacIntyre; settings: 37° C., 30 min; for log reduction at 2000 µg/mL: 2 mg/ml
Visna virus = test: microbe, parasite or virus in culture; format: cell-based, Visna virus strain K796; settings: 37° C., 30 min; for log reduction at 2000 µg/mL: 2 mg/ml
VSV [3] = test: microbe, parasite or virus in culture; format: cell-based, vesicular stomatitis virus; settings: for log reduction at 5000 µM / log reduction at 10000 µM: Vesicular stomatitis virus, read-out: Log10 Reduction in VSV Titer
VSV [4] = test: microbe, parasite or virus in culture; format: cell-based, vesicular stomatitis virus strain Indiana
sperm = test: Spermicidal test: motility and viability of sperm in semen; format: cell-based; settings: for coating of sperm: B, D 100 mM in semen, 30 minutes
Method: The fatty acids and derivatives thereof disclosed here are useful as spermicides and in the treatment of sexually transmitted diseases. […] Four samples tested were comprised as follows:
Five test tubes were prepared, one for each of Samples A to D and a Control. An amount of 0.5 ml of active semen was added to each test tube. Each of Samples A and B and the Control was at 37° C., and Samples C and D were at room temperature. The percentages of motility and viability were measured from 15 seconds to 5 minutes in the case of each of Samples A to D and from 15 seconds to 2 hours for the Control.

[5] = Vesicular stomatitis virus, 0.5 h, read-out: Reduction of virus titer, VSV
[6] = Vesicular stomatitis virus, 0.5 h
[7] = Human alphaherpesvirus 1, 0.5 h, read-out: Reduction of virus titer, HSV-1
[8] = Visna-maedi virus, 0.5 h, read-out: Reduction of virus titer, VV (visna virus)
[9] = 100 mM in semen, 5 min., Sample B 37° C., Sample D room temperature
[10] = 150 mM in semen, 3 min., Sample A 37° C., Sample C room temperature
[11] = 150 mM in semen, 5 min., Sample A 37° C., Sample C room temperature

CCCCCCCCCCOC[C@@H](O)CO [1-O-Decyl-sn-glycerol, 1-O-decyl-sn-glycerol]
Reduction in VSV titer (VSV [1]; 5 mM, with 10 mM sodium taurocholate, human plasma, 37° 30 min): 0 Log10 | antiviral activity of MG ethers relative to esters, in words (VSV [1]; human plasma): just as effective as the naturally occurring esters | Total White Blood Cells (Total White Blood Cells): 1.31

CCCCCCCC/C=C\CCCCCCCCOC[C@@H](O)CO [1-O-Oleyl-sn-glycerol, 1-O-oleyl-sn-glycerol]
log reduction at 5000 µM (VSV [1]; Vesicular stomatitis virus, 0.5 h, read-out: Reduction in VSV Titer, 5 mM, no sodium taurocholate, human plasma, 37° 30 min): 0 | log reduction at 10000 µM (VSV [1]; Vesicular stomatitis virus, 0.5 h, read-out: Reduction in VSV Titer, 10 mM, no sodium taurocholate, human plasma, 37° 30 min): 0 | log reduction at 15000 µM (VSV [1]; Vesicular stomatitis virus, 0.5 h, read-out: Reduction in VSV Titer, 15 mM, no sodium taurocholate, human plasma, 37° 30 min): 0 | antiviral activity of MG ethers relative to esters, in words (VSV [1]; human plasma): same lack of antiviral activity as the ester

CCCCC/C=C\C/C=C\C/C=C\C/C=C\CCCC(=O)O [Arachidonic (20:4), arachidonic acid]
log reduction at 500 µg/mL (VSV [2]; [5]): ≥ 4 | minimal effective concentration (VSV [2]; [6]): 500 µg/mL and 1600 µM | reduction of poliovirus titer (poliovirus): did not cause a significant reduction of virus titer

CCCC(=O)O [Butyric (4:0), Butyric]
log reduction at 10000 µg/mL (VSV [2]; [5]): 0 | antiviral effect in words (VSV [2]): no or a very small antiviral effect

CCCCCCCCCC(=O)O [Capric (10:0), Capric]
log reduction at 4000 µg/mL (VSV [2]; [5]): ≥ 4 | minimal effective concentration (VSV [2]; [6]): 4000 µg/mL and 22000 µM | log reduction at 4000 µg/mL (HSV-1; Human alphaherpesvirus 1, 0.5 h, 4 mg/ml, read-out: Reduction of virus titer, HSV-1): ≥ 4 | log reduction at 4000 µg/mL (Visna virus; Visna-maedi virus, 0.5 h, 4 mg/ml, read-out: Reduction of virus titer, VV (visna virus)): ≥ 3.2 | reduction of poliovirus titer (poliovirus): did not cause a significant reduction of virus titer

CCCCCC(=O)O [Caproic (6:0), Caproic]
log reduction at 10000 µg/mL (VSV [2]; [5]): 0 | antiviral effect in words (VSV [2]): no or a very small antiviral effect

CCCCCCCC(=O)O [Caprylic (8:0), Caprylic]
log reduction at 10000 µg/mL (VSV [2]; [5]): 1.8 | antiviral effect in words (VSV [2]): no or a very small antiviral effect | log reduction at 10000 µg/mL (Visna virus; Visna-maedi virus, 0.5 h, 10 mg/ml, read-out: Reduction of virus titer, VV (visna virus)): ≥ 3.2

CCCCCCCC/C=C/CCCCCCCC(=O)O [Elaidic (18:1 trans), Elaidic]
log reduction at 2000 µg/mL (VSV [2]; [5]): ≥ 4 | minimal effective concentration (VSV [2]; [6]): 2000 µg/mL and 7000 µM

CCCCCCCCCCCC(=O)OC[C@@H](O)COP(=O)([O-])OCC[N+](C)(C)C [L-α-Lysophosphatidylcholine lauroyl]
Log10 Reduction in VSV Titer (VSV [3]): 1.7 Log10 and 2.0 Log10 | log reduction at 5000 µM (VSV [3]): 1.2 | log reduction at 10000 µM (VSV [3]): 2

CCCCCCCCCC(=O)OC[C@@H](O)COP(=O)([O-])OCC[N+](C)(C)C [L-α-lysophosphatidylcholine decanoyl]
Log10 Reduction in VSV Titer (VSV [3]): 1.7 Log10 | log reduction at 5000 µM (VSV [3]): 1.7 | log reduction at 10000 µM (VSV [3]): 1

CC/C=C\C/C=C\C/C=C\CCCCCCCC(=O)O [Linolenic (18:3), Linolenic]
Reduction of virus titer, VSV (VSV [2]; 1 mg/ml, 37° C., 30 min): ≥ 4.0 log10 | lowest concentration which reduced the VSV titer by ≥4.0 log10 units (VSV [2]; 37° C., 30 min): 1 mg/ml and 3.6 mM | Reduction of virus titer, HSV-1 (HSV-1; 1 mg/ml): ≥ 4.0 log10 | Reduction of virus titer, VV (visna virus) (Visna virus; 1 mg/ml): ≥ 3.2 log10 | reduction of poliovirus titer (poliovirus): did not cause a significant reduction of virus titer

CCCCCCCC/C=C\CCCCCCCC(=O)OCC(O)CO (centres unmarked) [Monoolein (18:1), Monoolein]
concentration with highest antiviral activity of the concentrations tested (0.5 to 4 mg/ml) (VSV [4]; VSV, 37° C., 30 min): 1.0 mg/ml and 2.8 mM | log reduction at 1000 µg/mL (VSV [4]; [5]): 2.3

CCCCCCCC/C=C\CCCCCCCC(=O)O [Oleic (18:1 cis), Oleic]
log reduction at 2000 µg/mL (VSV [2]; [5]): ≥ 4 | minimal effective concentration (VSV [2]; [6]): 2000 µg/mL and 7000 µM | log reduction at 2000 µg/mL (HSV-1; [7]): ≥ 4 | log reduction at 2000 µg/mL (Visna virus; [8]): ≥ 3.2 | reduction of poliovirus titer (poliovirus): did not cause a significant reduction of virus titer

CCCCCCCCCCCCCCCC(=O)O [Palmitic (16:0), Palmitic]
log reduction at 20000 µg/mL (VSV [2]; [5]): 1 | antiviral effect in words (VSV [2]): no or a very small antiviral effect | log reduction at 20000 µg/mL (HSV-1; Human alphaherpesvirus 1, 0.5 h, 20 mg/ml, read-out: Reduction of virus titer, HSV-1): 1 | log reduction at 20000 µg/mL (Visna virus; Visna-maedi virus, 0.5 h, 20 mg/ml, read-out: Reduction of virus titer, VV (visna virus)): 0.7

CCCCCC/C=C\CCCCCCCC(=O)O [Palmitoleic (16:1), Palmitoleic]
log reduction at 2000 µg/mL (VSV [2]; [5]): ≥ 4 | minimal effective concentration (VSV [2]; [6]): 2000 µg/mL and 15000 µM | log reduction at 2000 µg/mL (HSV-1; [7]): ≥ 4 | log reduction at 2000 µg/mL (Visna virus; [8]): ≥ 3.2 | reduction of poliovirus titer (poliovirus): did not cause a significant reduction of virus titer

CCCCCCCCCCCCCCCCCC(=O)O [Stearic (18:0), Stearic]
log reduction at 20000 µg/mL (VSV [2]; [5]): 0 | antiviral effect in words (VSV [2]): no or a very small antiviral effect

CCCCC/C=C\C/C=C\CCCCCCCC(=O)O [sodium salt of linoleic acid]
antiviral effect in words (VSV [2]): antiviral effects similar to those of the free acids

CCCCCCCC/C=C\CCCCCCCC(=O)O [sodium salt of oleic acid]
antiviral effect in words (VSV [2]): antiviral effects similar to those of the free acids

L-α-lysophosphatidylcholine caproyl
Log10 Reduction in VSV Titer (VSV [3]; 5 mM, no sodium taurocholate): 0 Log10 | Log10 Reduction in VSV Titer (VSV [3]; 5 mM, with 10 mM sodium taurocholate): 0 Log10 | Log10 Reduction in VSV Titer (VSV [3]; 10 mM, no sodium taurocholate): 0 Log10 | Log10 Reduction in VSV Titer (VSV [3]; 10 mM, with 10 mM sodium taurocholate): 0 Log10 | Log10 Reduction in VSV Titer (VSV [3]; 15 mM, no sodium taurocholate): 0 Log10 | Log10 Reduction in VSV Titer (VSV [3]; 15 mM, with 10 mM sodium taurocholate): 1.0 Log10

N-dodecylsucrose
% mot. (sperm; 100 mM in semen, 15 sec., Sample B 37° C., Sample D room temperature): 17% | % mot. (sperm; 100 mM in semen, 30 sec., Sample B 37° C., Sample D room temperature): 9% | % mot. (sperm; 100 mM in semen, 1 min., Sample B 37° C., Sample D room temperature): 2% | % mot. (sperm; 100 mM in semen, 2 min., Sample B 37° C., Sample D room temperature): 0% | % mot. (sperm; 100 mM in semen, 3 min., Sample B 37° C., Sample D room temperature): 0% | % mot. (sperm; [9]): 0% | % via. (sperm; [9]): 0% | % mot. (sperm; 150 mM in semen, 15 sec., Sample A 37° C., Sample C room temperature): 0% | % mot. (sperm; 150 mM in semen, 30 sec., Sample A 37° C., Sample C room temperature): 0% | % mot. (sperm; 150 mM in semen, 1 min., Sample A 37° C., Sample C room temperature): 0% | % mot. (sperm; 150 mM in semen, 2 min., Sample A 37° C., Sample C room temperature): 0% | % mot. (sperm; [10]): 0% | % via. (sperm; [10]): 0% | % mot. (sperm; [11]): 0% | % via. (sperm; [11]): 0% | time within which 0% viability was effected (sperm; A, C 150 mM, B 100 mM in semen): ≤ 3 min | time within which sperm cells were rendered immobile (sperm; A, C 150 mM, B 100 mM in semen): ≤ 15 s | coating of sperm (sperm; A, C 150 mM, listed as Solution C): coated the sperm effectively; also recorded: most effective in this regard | coating of sperm (sperm; A, C 150 mM, listed as Solution D): did not have any coating effect at all
